Measured values reported in US6979690B2, “Oxo or oxy-pyridine compounds as 5-HT4 receptor modulators” (Pfizer Inc., priority 2002, dated 2005).

SMILES | melting point
COc1nc(N)c(Cl)cc1C(=O)CCC1CCN(CC(C)C)CC1 [Example 14, 1-(6-Amino-5-chloro-2-methoxy-3-pyridinyl)-3-(1-isobutyl-4-piperidinyl)-1-propanone] | 128 °C
CC(C)CN1CCC(CCC(=O)c2cc(Cl)c(N)[nH]c2=O)CC1 [Example 15, 6-Amino-5-chloro-3-[3-(1-isobutyl-4-piperidinyl)propanoyl]-2(1H)-pyridinone] | 175 °C
COc1nc(N)ccc1C(=O)CCC1CCN(CC2CCCCC2)CC1 [Example 16, 1-(6-Amino-2-methoxy-3-pyridinyl)-3-[1-(cyclohexylmethyl)-4-piperidinyl]-1-propanone] | 73.2 °C
COc1nc(N)c(Cl)cc1C(=O)CCC1CCN(CC(O)C(C)(C)C)CC1 (stereo not drawn) [Example 107, 1-(6-Amino-5-chloro-2-methoxypyridin-3-yl)-3-[1-(2-hydroxy-3,3-dimethylbutyl)piperidine-4-yl]propan-1-one] | 134 °C
CC(C)CCN1CCC(CNC(=O)c2cc(Cl)c(N)[nH]c2=O)CC1 [Example 5, 6-Amino-5-chloro-N-{[1-(3-methylbutyl)-4-piperidinyl]methyl}-2-oxo-1,2-dihydro-3-pyridinecarboxamide] | 131 to 135 °C
CCCCN1CCC(CCC(=O)c2ccc(N)nc2OC)CC1 [Example 12, 1-(6-Amino-2-methoxy-3-pyridinyl)-3-(1-butyl-4-piperidinyl)-1-propanone] | 85 to 89 °C
Nc1[nH]c(=O)c(C(=O)CCC2CCN(CC3CCCCC3)CC2)cc1Cl [Example 106, 6-Amino-5-chloro-3-{3-[1-(cyclohexylmethyl)piperidine-4-yl]propanoyl}pyridin-2(1H)-one] | 164.3 °C
CCOC(=O)CN1CCC(CNC(=O)c2cc(Cl)c(N)[nH]c2=O)CC1 [Example 7, Ethyl [4-({[(6-amino-5-chloro-2-oxo-1,2-dihydro-3-pyridinyl)carbonyl]amino}methyl)-1-piperidinyl]acetate] | 162 to 164 °C
COc1nc(N)c(Cl)cc1C(=O)CCC1CCN(CC(C)(C)O)CC1 [Example 109, 1-(6-Amino-5-chloro-2-methoxypyridin-3-yl)-3-[1-(2-hydroxy-2-methylpropyl)piperidine-4-yl]propan-1-one] | 108.1 °C
CCCCN1CCC(CCC(=O)c2cc(Cl)c(N)nc2OC)CC1 [Example 10, 1-[6-Amino-5-chloro-2-(methoxy)-3-pyridinyl]-3-(1-butyl-4-piperidinyl)-1-propanone] | 86 to 87 °C
CC(C)(C)OC(=O)CN1CCC(CNC(=O)c2cc(Cl)c(N)[nH]c2=O)CC1 [Example 8, 1,1-Dimethylethyl [4-({[(6-amino-5-chloro-2-oxo-1,2-dihydro-3-pyridinyl)carbonyl]amino}methyl)-1-piperidinyl]acetate] | 200 to 203 °C
CC(C)(C)C(O)CN1CCC(CCC(=O)c2cc(Cl)c(N)[nH]c2=O)CC1 (stereo not drawn) [Example 108, 6-Amino-5-chloro-3-{3-[1-(2-hydroxy-3,3-dimethylbutyl)-piperidine-4-yl]propanoyl}pyridin-2(1H)-one] | 211.3 °C
CC(C)CN1CCC(CNC(=O)c2cc(Cl)c(N)[nH]c2=O)CC1 [Example 6, 6-Amino-5-chloro-N-{[1-(2-methylpropyl)-4-piperidinyl]methyl}-2-oxo-1,2-dihydro-3-pyridinecarboxamide] | 128 to 133 °C
CCN1CCC(CNC(=O)c2cc(Cl)c(N)[nH]c2=O)CC1 [Example 1, 6-Amino-5-chloro-N-[(1-ethyl-4-piperidinyl)methyl]-2-oxo-1,2-dihydro-3-pyridinecarboxamide] | 136 to 140 °C
COc1nc(N)c(Cl)cc1C(=O)CCC1CCNCC1.Cl | 230.6 °C
